What was measured:
[1] = tested on: rats with DC crush injury; assay: CAP traces after DC injury in rats; type: in vivo; conditions: rat DC injury, 6 weeks
Description: The efficacy of oral AZD3342 in the DC injury model in adult Sprague-Dawley rat was also assessed. Animals were divided into 6 groups: (1), Sham (control); (2), DC crush injury+Vehicle; (3), DC crush injury+15 mg/kg AZD3342; (4), DC crush injury+75 mg/kg […]; (5), DC crush injury+375 mg/kg AZD3342; and (6), DC crush injury+Melatonin. Animals were dosed twice daily with oral AZD3342 or vehicle with the experimenters masked to the treatment conditions. These experiments were performed with n=6 rats/group and repeated on 2-3 independent occasions (total n=12-18 rats/group/test).
Compound action potentials (CAP) were recorded at 6 w weeks after DC injury and treatment, as described previously—for example B. C. Hains, C. Y. Saab, A. C. […]
Briefly, the experimenter was masked to the treatment status of the animals and the CAP amplitude was calculated between the negative deflection after the stimulus artifact and the next peak of the wave. CAP area was also calculated by rectifying the CAP component (full-wave rectification) and measuring its area. To confirm our recordings and that a CAP could not be recorded, the dorsal half of the spinal cord was transected after each experiment between the stimulating and recording electrodes.

[2] = tested on: gelatinase enzyme activity; assay: In situ zymography of DC-injured spinal cord sections; type: in vivo, mouse; conditions: oral and intrathecally-administered
Description: Animals were killed by CO2 overdose intracardially perfused with warm PBS and unfixed tissues were harvested. […] In situ zymography was performed as described previously (Z. Ahmed, R. G. Dent, W. E. Leadbeater, C. Smith, M. Berry, A. Logan, Matrix metalloproteases: degradation of the inhibitory environment of the transected optic nerve and the scar by regenerating axons. Mol Cell Neurosci 28, 64-78 (2005)).
Briefly, 15 μm-thick unfixed frozen longitudinal sections of the spinal cord were cut on a cryostat and incubated at 25° C., for 24 h in 50 mM Tris, pH 7.4, 150 mM NaCl, 5 mM CaCl2, 0.2 mM sodium azide and 40 ug/ml fluorescein conjugated DQ™ gelatin (Molecular Probes). Upon proteolysis, the highly fluoresceinated gelatin residues became separated and fluorescence resulted. Control sections were incubated either without DQ™ gelatin or incubated with 50 μM 1,10-phenanthroline (Sigma, Poole, UK) to block MMP activation. […] After final washes in PBS, sections were mounted in Vectashield with DAPI (Vector Laboratories, Loughborough, UK) and viewed with a Zeiss Axioplan 2 fluorescence microscope, equipped with an AxioCam HRc and running Axiovision software (Zeiss, Hertfordshire, UK).

Row | SMILES | electrophysiological CAP traces [1] | DC injury-induced gelatinase activity adjacent to the lesion site [2]
1 | C[C@]1(CS(=O)(=O)N2CCC(Oc3ccc(Cl)cn3)CC2)NC(=O)NC1=O [AZD3342, (5S)-5-[4-(5-chloro-pyridin-2-yloxy)-piperidine-1-sulfonylmethyl]-5-methylimidazolidine-2,4-dione] | significantly improved | 
2 | C[C@]1(CS(=O)(=O)N2CC=C(C#Cc3cnc(C4CC4)nc3)CC2)NC(=O)NC1=O [AZD1236] |  | completely suppressed
